Conditions: Cohort 3 400 mg QD

## CC(C)NC(=O)COc1cccc(-c2nc(Nc3ccc4[nH]ncc4c3)c3ccccc3n2)c1 [Belumosudil, 2-{3-[4-(1H-indazol-5-ylamino)-2-quinazolinyl]phenoxy}-N-(propan-2-yl) acetamide]
  Blood loss anaemia: # Events: 0
  Blood loss anaemia: Affected/At Risk: 0/21
  Blood loss anaemia: Affected/At Risk (%): (0%)
  Bronchial secretion retention: # Events: 0
  Bronchial secretion retention: Affected/At Risk: 0/21
  Bronchial secretion retention: Affected/At Risk (%): (0%)
  Bronchitis: # Events: 1
  Bronchitis: Affected/At Risk: 1/21
  Bronchitis: Affected/At Risk (%): (4.76%)
  Bronchoscopy: # Events: 0
  Bronchoscopy: Affected/At Risk: 0/21
  Bronchoscopy: Affected/At Risk (%): (0%)
  Catheter site haemorrhage: # Events: 0
  Catheter site haemorrhage: Affected/At Risk: 0/21
  Catheter site haemorrhage: Affected/At Risk (%): (0%)
  Chills: # Events: 0
  Chills: Affected/At Risk: 0/21
  Chills: Affected/At Risk (%): (0%)
  Chronic kidney disease: # Events: 0
  Chronic kidney disease: Affected/At Risk: 0/21
  Chronic kidney disease: Affected/At Risk (%): (0%)
  Conjunctival haemorrhage: # Events: 1
  Conjunctival haemorrhage: Affected/At Risk: 1/21
  Conjunctival haemorrhage: Affected/At Risk (%): (4.76%)
  Conjunctivitis: # Events: 3
  Conjunctivitis: Affected/At Risk: 3/21
  Conjunctivitis: Affected/At Risk (%): (14.29%)
  Constipation: # Events: 4
  Constipation: Affected/At Risk: 3/21
  Constipation: Affected/At Risk (%): (14.29%)
  Contrast media allergy: # Events: 0
  Contrast media allergy: Affected/At Risk: 0/21
  Contrast media allergy: Affected/At Risk (%): (0%)
  Contusion: # Events: 4
  Contusion: Affected/At Risk: 3/21
  Contusion: Affected/At Risk (%): (14.29%)
  Corneal abrasion: # Events: 0
  Corneal abrasion: Affected/At Risk: 0/21
  Corneal abrasion: Affected/At Risk (%): (0%)
  Corneal infection: # Events: 0
  Corneal infection: Affected/At Risk: 0/21
  Corneal infection: Affected/At Risk (%): (0%)
  Cough: # Events: 9
  Cough: Affected/At Risk: 7/21
  Cough: Affected/At Risk (%): (33.33%)
  Decreased appetite: # Events: 4
  Decreased appetite: Affected/At Risk: 4/21
  Decreased appetite: Affected/At Risk (%): (19.05%)
  Dehydration: # Events: 2
  Dehydration: Affected/At Risk: 2/21
  Dehydration: Affected/At Risk (%): (9.52%)
  Depression: # Events: 3
  Depression: Affected/At Risk: 3/21
  Depression: Affected/At Risk (%): (14.29%)
  Diarrhoea: # Events: 11
  Diarrhoea: Affected/At Risk: 7/21
  Diarrhoea: Affected/At Risk (%): (33.33%)
  Dizziness: # Events: 2
  Dizziness: Affected/At Risk: 2/21
  Dizziness: Affected/At Risk (%): (9.52%)
  Drug eruption: # Events: 0
  Drug eruption: Affected/At Risk: 0/21
  Drug eruption: Affected/At Risk (%): (0%)
  Dry eye: # Events: 2
  Dry eye: Affected/At Risk: 2/21
  Dry eye: Affected/At Risk (%): (9.52%)
  Dry skin: # Events: 1
  Dry skin: Affected/At Risk: 1/21
  Dry skin: Affected/At Risk (%): (4.76%)
  Dyspepsia: # Events: 1
  Dyspepsia: Affected/At Risk: 1/21
  Dyspepsia: Affected/At Risk (%): (4.76%)
  Dysphagia: # Events: 3
  Dysphagia: Affected/At Risk: 2/21
  Dysphagia: Affected/At Risk (%): (9.52%)
  Dyspnoea exertional: # Events: 0
  Dyspnoea exertional: Affected/At Risk: 0/21
  Dyspnoea exertional: Affected/At Risk (%): (0%)
  Dyspnoea: # Events: 6
  Dyspnoea: Affected/At Risk: 6/21
  Dyspnoea: Affected/At Risk (%): (28.57%)
  Embolism: # Events: 1
  Embolism: Affected/At Risk: 1/21
  Embolism: Affected/At Risk (%): (4.76%)
  Enamel anomaly: # Events: 0
  Enamel anomaly: Affected/At Risk: 0/21
  Enamel anomaly: Affected/At Risk (%): (0%)
  Epidural lipomatosis: # Events: 0
  Epidural lipomatosis: Affected/At Risk: 0/21
  Epidural lipomatosis: Affected/At Risk (%): (0%)
  Epstein-Barr virus infection: # Events: 0
  Epstein-Barr virus infection: Affected/At Risk: 0/21
  Epstein-Barr virus infection: Affected/At Risk (%): (0%)
  Erectile dysfunction: # Events: 0
  Erectile dysfunction: Affected/At Risk: 0/21
  Erectile dysfunction: Affected/At Risk (%): (0%)
  Eye irritation: # Events: 0
  Eye irritation: Affected/At Risk: 0/21
  Eye irritation: Affected/At Risk (%): (0%)
  Eye pain: # Events: 0
  Eye pain: Affected/At Risk: 0/21
  Eye pain: Affected/At Risk (%): (0%)
  Eye pruritus: # Events: 0
  Eye pruritus: Affected/At Risk: 0/21
  Eye pruritus: Affected/At Risk (%): (0%)
  Fall: # Events: 1
  Fall: Affected/At Risk: 1/21
  Fall: Affected/At Risk (%): (4.76%)
  Fatigue: # Events: 14
  Fatigue: Affected/At Risk: 10/21
  Fatigue: Affected/At Risk (%): (47.62%)
  Flatulence: # Events: 1
  Flatulence: Affected/At Risk: 1/21
  Flatulence: Affected/At Risk (%): (4.76%)
  Flushing: # Events: 0
  Flushing: Affected/At Risk: 0/21
  Flushing: Affected/At Risk (%): (0%)
  Fungal infection: # Events: 0
  Fungal infection: Affected/At Risk: 0/21
  Fungal infection: Affected/At Risk (%): (0%)
  Gamma-glutamyltransferase increased: # Events: 0
  Gamma-glutamyltransferase increased: Affected/At Risk: 0/21
  Gamma-glutamyltransferase increased: Affected/At Risk (%): (0%)
  Gastric ulcer: # Events: 0
  Gastric ulcer: Affected/At Risk: 0/21
  Gastric ulcer: Affected/At Risk (%): (0%)
  Gastrooesophageal reflux disease: # Events: 2
  Gastrooesophageal reflux disease: Affected/At Risk: 2/21
  Gastrooesophageal reflux disease: Affected/At Risk (%): (9.52%)
  Generalised oedema: # Events: 1
  Generalised oedema: Affected/At Risk: 1/21
  Generalised oedema: Affected/At Risk (%): (4.76%)
  Genital infection fungal: # Events: 0
  Genital infection fungal: Affected/At Risk: 0/21
  Genital infection fungal: Affected/At Risk (%): (0%)
  Glaucoma: # Events: 0
  Glaucoma: Affected/At Risk: 0/21

From US20250255867A1 (Kadmon Corporation, LLC, priority 2022, published 2025)
